According to patent US7345070B2, “Peroxisome proliferator activated receptor agonists” (Eli Lilly and Company, priority 2000, dated 2008):

Assays:
HuapoAI transgenic mice = assay: Evaluation of triglyceride and cholesterol level in HuapoAI transgenic mice; format: in vivo; details: Mus musculus, 168 h, human apoAI transgenic mice, 30 mg/kg oral gavage daily for 7 days; for change in vivo at 30 mg/kg: FPLC area under the curve, over mice receiving vehicle, read-out: % HDLc Increase; for inhibition in vivo at 30 mg/kg: serum 3 h after dosing, read-out: Reduction in Triglyceride Serum Level
In short: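 Mice got daily oral gavage doses for 7 days, and blood was drawn by cardiac puncture under isoflurane 3 h after the final dose. Serum triglycerides and total cholesterol were measured colorimetrically against standard curves. VLDL, LDL and HDL cholesterol came from Superose 6 FPLC in PBS-EDTA with in-line detection, as peak areas.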

huPPARγ [1] = target: T1, huPPARγ (Homo sapiens, UniProt P37231); assay: DNA-dependent binding (ABCD binding) using SPA technology, huPPARγ; details: SPA displacement of tritium-labeled PPARγ agonist radioligand
T1 sequence (P37231 1-505): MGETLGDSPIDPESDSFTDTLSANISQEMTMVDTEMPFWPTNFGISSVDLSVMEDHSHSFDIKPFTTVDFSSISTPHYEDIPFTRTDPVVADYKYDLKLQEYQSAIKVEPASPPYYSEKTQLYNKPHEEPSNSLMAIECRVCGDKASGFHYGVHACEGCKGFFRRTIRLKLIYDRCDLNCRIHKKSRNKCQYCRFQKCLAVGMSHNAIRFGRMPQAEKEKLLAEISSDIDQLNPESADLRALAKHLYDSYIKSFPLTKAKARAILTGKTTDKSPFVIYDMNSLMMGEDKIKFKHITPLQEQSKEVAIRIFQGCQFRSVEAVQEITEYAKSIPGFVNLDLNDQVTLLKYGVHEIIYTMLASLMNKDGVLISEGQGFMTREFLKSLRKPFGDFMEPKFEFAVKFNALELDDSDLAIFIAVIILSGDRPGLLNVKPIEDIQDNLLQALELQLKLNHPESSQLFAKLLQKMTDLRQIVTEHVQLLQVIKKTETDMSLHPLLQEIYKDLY
T1 sequence (P19793 1-462 partner): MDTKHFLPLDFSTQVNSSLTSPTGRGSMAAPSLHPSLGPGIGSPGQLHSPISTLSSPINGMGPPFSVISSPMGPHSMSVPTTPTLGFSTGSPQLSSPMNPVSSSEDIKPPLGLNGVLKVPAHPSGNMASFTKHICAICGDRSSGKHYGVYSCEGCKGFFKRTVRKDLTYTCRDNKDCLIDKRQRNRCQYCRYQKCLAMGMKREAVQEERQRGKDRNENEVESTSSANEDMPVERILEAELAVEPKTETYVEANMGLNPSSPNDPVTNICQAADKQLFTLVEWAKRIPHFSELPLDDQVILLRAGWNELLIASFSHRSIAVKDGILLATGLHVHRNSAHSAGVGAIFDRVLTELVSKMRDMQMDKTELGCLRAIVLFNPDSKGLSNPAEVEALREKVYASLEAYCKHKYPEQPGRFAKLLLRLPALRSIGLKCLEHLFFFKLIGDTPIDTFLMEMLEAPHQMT
Description: (§1) DNA-dependent binding (ABCD binding) was carried out using SPA technology with PPAR receptors. Tritium-labeled PPARα and PPARγ agonists were used as radioligands for generating displacement curves and IC50 values with compounds of the invention. Cotransfection assays were carried out in CV-1 cells. The reporter plasmid contained an acylCoA oxidase (AOX) PPRE and TK promoter upstream of the luciferase reporter cDNA. Appropriate PPARs and RXRα were constitutively expressed using plasmids containing the CMV promoter. […] In order to eliminate such interference, a GAL4 chimeric system was used in which the DNA binding domain of the transfected PPAR was replaced by that of GAL4, and the GAL4 response element was utilized in place of the AOX PPRE. Cotransfection efficacy was determined relative to PPARα agonist and PPARγ agonist reference molecules. Efficacies were determined by computer fit to a concentration-response curve, or in some cases at a single high concentration of agonist (10 μM). For binding or cotransfection studies with receptors other than PPARs, similar assays were carried out using appropriate ligands, receptors, reporter constructs, etc., for that particular receptor.
(§2) These studies were carried out to evaluate the ability of compounds of the invention to bind to and/or activate various nuclear transcription factors, particularly huPPARα (“hu” indicates “human”) and huPPARγ. These studies provide in vitro data concerning efficacy and selectivity of compounds of the invention. Furthermore, binding and cotransfection data for compounds of the invention were compared with corresponding data for marketed compounds that act on either huPPARα or huPPARγ.

huPPARγ [2] = target: T1, huPPARγ; assay: Cotransfection assay in CV-1 cells, huPPARγ; format: cell-based; design: Appropriate PPARs and RXRα were constitutively expressed using plasmids containing the CMV promoter; expressed in transfected cells; host or cells: CV-1 cells; details: AOX PPRE luciferase reporter, relative to PPARγ agonist reference molecule, read-out: huPPARγ CTF Efficacy
Description: as §1, §2

Compound	change in vivo at 30 mg/kg (HuapoAI transgenic mice) [%]	inhibition in vivo at 30 mg/kg (HuapoAI transgenic mice) [%]	IC50 (huPPARγ [1]) [nM]	Emax (huPPARγ [2]) [%]
Cc1cccc(OC(C)(Cc2ccc(OCCc3nc(C4CCCCC4)oc3C)cc2)C(=O)O)c1 (stereo not drawn) [Example 62, 3-{4-[2-(2-Cyclohexyl-5-methyl-oxazol-4-yl)-ethoxy]-phenyl}-2-methyl-2-m-tolyloxy-propionic acid]	72	2.5	79	35
Cc1oc(-c2cccs2)nc1CCOc1ccc(CC(C)(Oc2cccc(C(F)(F)F)c2)C(=O)O)cc1 (stereo not drawn) [Example 71, 2-Methyl-3-{4-[2-(5-methyl-2-thiophen-2-yl-oxazol-4-yl)-ethoxy]-phenyl}-2-(3-trifluoromethyl-phenoxy)-propionic acid]	34	–	81	50
Cc1ccc(OC(C)(Cc2ccc(OCCc3nc(C4CCCCC4)oc3C)cc2)C(=O)O)cc1C (stereo not drawn) [Example 35, 3-{4-[2-(2-Cyclohexyl-5-methyl-oxazol-4-yl)-ethoxy]-phenyl}-2-(3,4-dimethyl-phenoxy)-2-methyl-propionic acid]	77	32.3	79	21
Cc1oc(-c2ccccc2)nc1CCCc1ccc(CC(C)(Oc2ccccc2)C(=O)O)s1 (stereo not drawn) [Example 91, 2-Methyl-3-{5-[3-(5-methyl-2-phenyl-oxazol-4-yl)-propyl]-thiophen-2-yl}-2-phenoxy-propionic acid]	46	–	51	62
Cc1oc(-c2cccs2)nc1CCOc1ccc(CC(C)(Oc2ccc(C(F)(F)F)cc2)C(=O)O)cc1 (stereo not drawn) [Example 51, 2-Methyl-3-{4-[2-(5-methyl-2-thiophen-2-yl-oxazol-4-yl)-ethoxy]-phenyl}-2-(4-trifluoromethyl-phenoxy)-propionic acid]	122	72.8	80	48
Cc1cccc(OC(C)(Cc2ccc(OCCc3nc(-c4cccs4)oc3C)cc2)C(=O)O)c1 (stereo not drawn) [Example 61, 2-Methyl-3-{4-[2-(5-methyl-2-thiophen-2-yl-oxazol-4-yl)-ethoxy]-phenyl}-2-m-tolyloxy-propionic acid]	72	17.6	84	12
Cc1oc(C2(C)CCCCC2)nc1CCOc1ccc(C[C@](C)(Oc2ccc(F)cc2)C(=O)O)cc1 [Example 67, (S)-2-(4-Fluoro-phenoxy)-2-methyl-3-(4-{2-[5-methyl-2-(1-methyl-cyclohexyl)-oxazol-4-yl]-ethoxy}-phenyl)-propionic acid]	76	67.8	65	11
Cc1oc(-c2cccc(Br)c2)nc1CCOc1ccc(CC(C)(Oc2ccccc2)C(=O)O)cc1 (stereo not drawn) [Example 8, 3-(4-{2-[2-(3-Bromophenyl)-5-methyloxazol-4-yl]ethoxy}phenyl)-2-methyl-2-phenoxypropionic acid]	34	–	24	75
Cc1ccc(OC(C)(Cc2ccc(OCCc3nc(-c4cccs4)oc3C)cc2)C(=O)O)cc1C (stereo not drawn) [Example 36, 2-(3,4-Dimethyl-phenoxy)-2-methyl-3-{4-[2-(5-methyl-2-thiophen-2-yl-oxazol-4-yl)-ethoxy]-phenyl}-propionic acid]	30	23	88	21
Cc1oc(C2(C)CCCCC2)nc1CCOc1ccc(CC(C)(Oc2ccccc2)C(=O)O)cc1 (stereo not drawn) [Example 9, 2-Methyl-3-(4-{2-[5-methyl-2-(1-methylcyclohexyl)oxazol-4-yl]ethoxy}phenyl)-2-phenoxypropionic acid]	123	19.8	11	73
Cc1oc(-c2cccs2)nc1CCOc1ccc(CC(C)(Oc2cccc(F)c2)C(=O)O)cc1 (stereo not drawn) [Example 22, 2-(3-Fluoro-phenoxy)-2-methyl-3-{4-[2-(5-methyl-2-thiophen-2-yl-oxazol-4-yl)-ethoxy]-phenyl}-propionic acid]	29	19.5	85	12
Cc1oc(C2CCCCC2)nc1CCOc1ccc(CC(C)(Oc2ccc(F)cc2)C(=O)O)cc1 (stereo not drawn) [Example 65, 3-{4-[2-(2-Cyclohexyl-5-methyl-oxazol-4-yl)-ethoxy]-phenyl}-2-(4-fluoro-phenoxy)-2-methyl-propionic acid]	75	54	82	24
Cc1oc(C2CCCCC2)nc1CCOc1ccc(CC(C)(Oc2ccc3c(c2)OCO3)C(=O)O)cc1 (stereo not drawn) [Example 80, 2-(Benzo[1,3]dioxol-5-yloxy)-3-{4-[2-(2-cyclohexyl-5-methyl-oxazol-4-yl)-ethoxy]-phenyl}-2-methyl-propionic acid]	123	36.6	80	30
Cc1oc(C2CCCCC2)nc1CCOc1ccc(CC(C)(Oc2ccc(C(C)(C)C)cc2)C(=O)O)cc1 (stereo not drawn) [Example 18, 2-Methyl-3-(4-{2-[5-methyl-2-cyclohexylyl-oxazol-4-yl]-ethoxy}-phenyl)-2-(4-tert-butylphenoxy)-propionic acid]	141	69	60	112
Cc1oc(-c2cccs2)nc1CCOc1ccc(CC(C)(Oc2ccccc2F)C(=O)O)cc1 (stereo not drawn) [Example 27, 2-(2-Fluoro-phenoxy)-2-methyl-3-{4-[2-(5-methyl-2-thiophen-2-yl-oxazol-4-yl)-ethoxy]-phenyl}-propionic acid]	49	36.8	76	15
